The test has as its target FPR2 (Homo sapiens (Human), UniProt P25090). As to the kind of experiment: FLIPR Ca+2 response, HEK-Gα16 cells stably expressing the human FPR2 receptor (Table 4). Type of test: cell-based. As to conditions: for FPR2 (efficacy): efficacy in parentheses. A digest of the protocol: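 HEK-Gα16 cells stably expressing human FPR2, loaded with 2 μM Fluo-4 in HBSS/20 mM HEPES for 40 min at 37° C., then washed. Ligands added in HBSS/Hepes and Ca+2 responses recorded on FLIPR in relative fluorescence units.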

Here are results for 33 compounds from patent US10208071B2, “Use of agonists of formyl peptide receptor 2 for treating ocular inflammatory diseases” (Allergan, Inc., priority 2013, dated 2019).

FPR2, sequence (P25090 whole entry): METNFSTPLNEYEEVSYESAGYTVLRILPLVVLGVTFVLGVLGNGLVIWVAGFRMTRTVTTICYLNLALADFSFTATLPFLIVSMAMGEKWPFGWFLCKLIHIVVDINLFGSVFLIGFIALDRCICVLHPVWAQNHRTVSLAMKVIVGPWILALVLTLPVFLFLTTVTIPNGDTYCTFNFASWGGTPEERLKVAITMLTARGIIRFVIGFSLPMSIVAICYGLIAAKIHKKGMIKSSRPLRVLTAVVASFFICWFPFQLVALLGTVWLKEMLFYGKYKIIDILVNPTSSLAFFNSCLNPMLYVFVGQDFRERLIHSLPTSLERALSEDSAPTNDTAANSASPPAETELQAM

Regarding `CC(C)C[C@H](NC(=O)Nc1ccc(Br)cc1)C(=O)NC(CO)CO` [Compound 94, (2S)-2-{[(4-bromophenyl)carbamoyl]amino}-N-(1,3-dihydroxypropan-2-yl)-4-methylpentanamide], the “FPR2 (efficacy)” value is on record as “nM (0.96)”.

With `CC(C)C[C@H](NC(=O)Nc1ccc(Br)cc1)C(=O)NCC(O)CO` (stereo partly drawn) [Compound 95, (2S)-2-{[(4-bromophenyl)carbamoyl]amino}-N-(2,3-dihydroxypropyl)-4-methylpentanamide], the “FPR2 (efficacy)” value was “nM (0.98)”. As to `CC(C)C[C@H](NC(=O)Nc1ccc(Br)cc1)C(=O)N[C@H](C)CO` [Compound 96, (2S)-2-{[(4-bromophenyl)carbamoyl]amino}-N-[(2R)-1-hydroxypropan-2-yl]-4-methylpentanamide], the “FPR2 (efficacy)” value is “nM (1.0)”.

As to `Cc1ccc(CCC2(C)NC(=O)N(NC(=O)Nc3ccc(Br)cc3)C2=O)o1` (stereo not shown) [Compound 97, 1-(4-bromophenyl)-3-{4-methyl-4-[2-(5-methylfuran-2-yl)ethyl]-2,5-dioxoimidazolidin-1-yl}urea], the “FPR2 (efficacy)” value is given as “nM (0.95)”. On the same count and under the same terms, the same measure for `CC1(CCc2ccc(O)c(F)c2)NC(=O)N(NC(=O)Nc2ccc(Br)cc2F)C1=O` (stereo not shown) [Compound 98, 1-(4-bromo-2-fluorophenyl)-3-{4-[2-(3-fluoro-4-hydroxyphenyl)ethyl]-4-methyl-2,5-dioxoimidazolidin-1-yl}urea]: “nM (0.91)”.

The term EC50 denotes the concentration that produces a half-maximal response. In the case of `CC1(CCc2ccc(O)c(F)c2)NC(=O)N(NC(=O)Nc2ccc(Br)cc2)C1=O` (stereo not shown) [Compound 99, 1-(4-bromophenyl)-3-{4-[2-(3-fluoro-4-hydroxyphenyl)ethyl]-4-methyl-2,5-dioxoimidazolidin-1-yl}urea], the response was half-maximal at 8 nM (EC50) and the “FPR2 (efficacy)” value is “nM (1.0)”.

In the case of `CCC[C@H](NC(=O)[C@H](CC(C)C)NC(=O)Nc1ccc(Br)cc1)C(=O)OC(C)(C)C` [Compound 100, tert-butyl (2S)-2-{[(2S)-2-{[(4-bromophenyl)carbamoyl]amino}-4-methylpentanoyl]amino} pentanoate], the “FPR2 (efficacy)” value is listed as “nM (1.0)”. The same measure, in the same setting: the same measure for `CCC[C@H](NC(=O)[C@H](CC(C)C)NC(=O)Nc1ccc(Br)cc1)C(=O)O` [Compound 101, (2S)-2-{[(2S)-2-{[(4-bromophenyl)carbamoyl]amino}-4-methylpentanoyl]amino} pentanoic acid]: “nM (0.95)”. As for `CCC[C@H](NC(=O)[C@H](CC(C)C)NC(=O)Nc1ccc(Br)cc1)C(N)=O` [Compound 102, (2S)-N-[(2S)-1-amino-1-oxopentan-2-yl]-2-{[(4-bromophenyl)carbamoyl]amino}-4-methylpentanamide], the EC50 came to 7.3 nM and the “FPR2 (efficacy)” value is “nM (0.99)”. In the case of `CC(C)C[C@H](NC(=O)Nc1ccc(Br)cc1)C(=O)N[C@H](C(=O)O)c1ccccc1` [Compound 103, (2S)-{[(2S)-2-{[(4-bromophenyl)carbamoyl]amino}-4-methylpentanoyl]amino} (phenyl)ethanoic acid], the “FPR2 (efficacy)” value is reported as “nM (1.0)”. On the same count and under the same terms, in the case of `CC(C)C[C@H](NC(=O)Nc1ccc(Br)cc1)C(=O)NCc1nnn[nH]1` [Compound 104, (2S)-2-{[(4-bromophenyl)carbamoyl]amino}-4-methyl-N-(1H-tetrazol-5-ylmethyl)pentanamide] it was “nM (0.81)”; in that of `CCOP(=O)(O)CNC(=O)[C@H](CC(C)C)NC(=O)Nc1ccc(Br)cc1` [Compound 105, ethyl hydrogen ({[(2S)-2-{[(4-bromophenyl)carbamoyl]amino}-4-methylpentanoyl]amino}methyl)phosphonate], “nM (0.88)”.

On to `CC1(CCc2ccccc2O)NC(=O)N(NC(=O)Nc2ccc(Br)cc2F)C1=O` (stereo not shown) [Compound 106, 1-(4-bromo-2-fluorophenyl)-3-{4-[2-(2-hydroxyphenyl)ethyl]-4-methyl-2,5-dioxoimidazolidin-1-yl}urea], for which a half-maximal effect (EC50) was put at 4 nM and the “FPR2 (efficacy)” value was “nM (0.91)”. Turning to `CC1(CCc2cccc(O)c2)NC(=O)N(NC(=O)Nc2ccc(Br)cc2F)C1=O` (stereo not shown) [Compound 107, 1-(4-bromo-2-fluorophenyl)-3-{4-[2-(3-hydroxyphenyl)ethyl]-4-methyl-2,5-dioxoimidazolidin-1-yl}urea], the EC50 was 2.2 nM and the “FPR2 (efficacy)” value is recorded as “nM (0.79)”. For `CC1(CCc2cccc(O)c2)NC(=O)N(NC(=O)Nc2ccc(Br)cc2)C1=O` (stereo not shown) [Compound 108, 1-(4-bromophenyl)-3-{4-[2-(3-hydroxyphenyl)ethyl]-4-methyl-2,5-dioxoimidazolidin-1-yl}urea] the same measures were 2.1 nM and “nM (1.0)”. For `CC1(CCc2ccccc2O)NC(=O)N(NC(=O)Nc2ccc(Br)cc2)C1=O` (stereo not shown) [Compound 109, 1-(4-bromophenyl)-3-{4-[2-(2-hydroxyphenyl)ethyl]-4-methyl-2,5-dioxoimidazolidin-1-yl}urea], the “FPR2 (efficacy)” value is reported as “nM (0.93)”. As for `CC(C)CC(C)(NC(=O)Nc1ccc(Br)cc1)C(=O)O` (stereo not shown) [Compound 110, 2-{[(4-bromophenyl)carbamoyl]amino}-2,4-dimethylpentanoic acid], the EC50 came to 19.4 nM and the “FPR2 (efficacy)” value was “nM (0.98)”. As to `CC(C)CC(C)(NC(=O)Nc1ccc(Br)cc1)C(=O)NCC(=O)O` (stereo not shown) [Compound 111, [(2-{[(4-bromophenyl)carbamoyl]amino}-2,4-dimethylpentanoyl)amino] acetic acid], the EC50 stood at 19.1 nM and the “FPR2 (efficacy)” value was “nM (0.99)”.

For the compound `CCOP(=O)(CNC(=O)[C@H](CC(C)C)NC(=O)Nc1ccc(Br)cc1)OCC` [Compound 112, diethyl ({[(2S)-2-{[(4-bromophenyl)carbamoyl]amino}-4-methylpentanoyl]amino}methyl)phosphonate], the concentration giving a half-maximal response (EC50) stood at 0.48 nM. For `CCC(CC)(NC(=O)Nc1ccc(Br)cc1)C(=O)NCC(=O)O` [Compound 113], the EC50 worked out at 18.7 nM and the “FPR2 (efficacy)” value is “nM (1.0)”. Turning to `CCOP(=O)(CNC(=O)[C@@H](NC(=O)Nc1ccc(Br)cc1)[C@@H](C)CC)OCC` [Compound 114, diethyl ({[(2S,3S)-2-{[(4-bromophenyl)carbamoyl]amino}-3-methylpentanoyl]amino}methyl)phosphonate], the concentration for a half-maximal effect (EC50) came out at 2.9 nM and the “FPR2 (efficacy)” value is “nM (1.0)”. Taken in the same sequence, the figures for `CCOP(=O)(O)CNC(=O)[C@@H](NC(=O)Nc1ccc(Br)cc1)[C@@H](C)CC` [Compound 115, ethyl hydrogen ({[(2S,3S)-2-{[(4-bromophenyl)carbamoyl]amino}-3-methylpentanoyl]amino}methyl)phosphonate] were 2.7 nM and “nM (0.88)”. Consider `CC(C)C[C@H](NC(=O)Nc1ccc(Br)cc1)C(=O)NCc1cc(O)no1` [Compound 116, (2S)-2-{[(4-bromophenyl)carbamoyl]amino}-N-[(3-hydroxy-1,2-oxazol-5-yl)methyl]-4-methylpentanamide], for which the “FPR2 (efficacy)” value is listed as “nM (1.0)”. As for `CCC[C@H](NC(=O)Nc1ccc(Br)cc1)C(=O)NCP(=O)(OCC)OCC` [Compound 117, diethyl ({[(2S)-2-{[(4-bromophenyl)carbamoyl]amino}pentanoyl]amino}methyl) phosphonate], the half-maximal effective concentration (EC50) was 0.27 nM and the “FPR2 (efficacy)” value is “nM (1.0)”.

Turning to `CCOP(=O)(CNC(=O)[C@H](Cc1ccccc1)NC(=O)Nc1ccc(Br)cc1)OCC` [Compound 118, diethyl ({[(2S)-2-{[(4-bromophenyl)carbamoyl]amino}-3-phenylpropanoyl]amino}methyl)phosphonate], the midpoint of the response, the EC50, lay at 16.1 nM and the “FPR2 (efficacy)” value is recorded as “nM (0.93)”.

`CCOP(=O)(CCNC(=O)[C@H](CC(C)C)NC(=O)Nc1ccc(Br)cc1)OCC` [Compound 119, diethyl (2-{[(2S)-2-{[(4-bromophenyl)carbamoyl]amino}-4-methylpentanoyl]amino}ethyl) phosphonate]: the response was half-maximal at 16.1 nM (EC50). In other words, the double-digit nanomolar range.

Regarding `CC(C)C[C@H](NC(=O)Nc1ccc(Br)cc1)C(=O)NCC(=O)N(C)C` [Compound 120, (2S)-2-{[(4-bromophenyl)carbamoyl]amino}-N-[2-(dimethylamino)-2-oxoethyl]-4-methylpentanamide], the EC50 is 1.7 nM and the “FPR2 (efficacy)” value is given as “nM (0.99)”. For `CC(C)C[C@H](NC(=O)Nc1ccc(I)cc1)C(=O)O` [Compound 121, (2S)-2-{[(4-iodophenyl)carbamoyl]amino}-4-methylpentanoic acid], the concentration for a half-maximal effect (EC50) was determined as 4 nM and the “FPR2 (efficacy)” value is recorded as “nM (0.93)”. As to `CCC[C@H](NC(=O)Nc1ccc(Br)cc1)C(=O)NCP(=O)(O)OCC` [Compound 123, ethyl hydrogen ({[(2S)-2-{[(4-bromophenyl)carbamoyl]amino}pentanoyl]amino}methyl) phosphonate], the “FPR2 (efficacy)” value is on record as “nM (0.96)”. `CC(C)C[C@H](NC(=O)Nc1ccc(C(F)(F)F)cc1)C(=O)NCC(=O)O` [Compound 124, {[(2S)-4-methyl-2-({[4-(trifluoromethyl)phenyl]carbamoyl}amino)pentanoyl]amino}acetic acid]: the “FPR2 (efficacy)” value is reported as “nM (1.0)”. Regarding `CCC[C@H](NC(=O)Nc1ccc(Br)cc1)C(=O)NCP(=O)(OC(C)C)OC(C)C` [Compound 125, dipropan-2-yl ({[(2S)-2-{[(4-bromophenyl)carbamoyl]amino}pentanoyl]amino}methyl) phosphonate], the EC50 is 1.2 nM and the “FPR2 (efficacy)” value is recorded as “nM (1.0)”. Take `CCOP(=O)(O)CNC(=O)[C@H](Cc1ccccc1)NC(=O)Nc1ccc(Br)cc1` [Compound 126, ethyl hydrogen ({[(2S)-2-{[(4-bromophenyl)carbamoyl]amino}-3-phenylpropanoyl]amino}methyl)phosphonate]: the “FPR2 (efficacy)” value is “nM (1.0)”. Regarding `CC(C)C[C@H](NC(=O)Nc1ccc(Br)cc1)C(=O)NCS(=O)(=O)O` [Compound 127, {[(2S)-2-{[(4-bromophenyl)carbamoyl]amino}-4-methylpentanoyl]amino} methanesulfonic acid], the half-maximal effective concentration (EC50) amounted to 2 nM and the “FPR2 (efficacy)” value is reported as “nM (0.91)”.
